Laboratory results: publication PMC6691788, “Design and synthesis of phthalazine-based compounds as potent anticancer agents with potential antiangiogenic activity via VEGFR-2 inhibition” (Journal of Enzyme Inhibition and Medicinal Chemistry, 2019)

Experiments:
Test in all cases: NCI 60 cell panel SRB screen
[1] = test system: CCRF-CEM; assay type: cell-based, human; details: Homo sapiens, single dose 10 μM, read-out: percent cell growth promotion
[2] = test system: HL-60(TB); assay type: cell-based; details: Homo sapiens, single dose 10 μM, read-out: percent cell growth promotion
[3] = test system: RPMI-8226; assay type: cell-based; details: Homo sapiens; RPMI-8226, single dose 10 μM; read-out: percent cell growth promotion
[4] = test system: SR; assay type: cell-based; details: Homo sapiens, single dose 10 μM, read-out: percent cell growth promotion
[5] = test system: NCI-H226; assay type: cell-based; details: Homo sapiens; NCI-H226, single dose 10 μM; read-out: percent cell growth promotion
[6] = test system: NCI-H23; assay type: cell-based; details: Homo sapiens; NCI-H23, single dose 10 μM; read-out: percent cell growth promotion
[7] = test system: HCC-2998; assay type: cell-based; details: Homo sapiens; HCC-2998, single dose 10 μM; read-out: percent cell growth promotion
[8] = test system: HCT-116; assay type: cell-based; details: Homo sapiens; HCT-116, single dose 10 μM; read-out: percent cell growth promotion
[9] = test system: HCT-15; assay type: cell-based; details: Homo sapiens; HCT-15, single dose 10 μM; read-out: percent cell growth promotion
[10] = test system: KM12; assay type: cell-based; details: Homo sapiens; KM12, single dose 10 μM; read-out: percent cell growth promotion
[11] = test system: SF-295; assay type: cell-based; details: Homo sapiens; SF-295, single dose 10 μM; read-out: percent cell growth promotion
[12] = test system: SNB-19; assay type: cell-based; details: Homo sapiens; SNB-19, single dose 10 μM; read-out: percent cell growth promotion
[13] = test system: MALME-3M; assay type: cell-based; details: Homo sapiens, Malme-3M, read-out: percent cell growth promotion
[14] = test system: UACC-62; assay type: cell-based; details: Homo sapiens, UACC-62, read-out: percent cell growth promotion
[15] = test system: OVCAR-3; assay type: cell-based; details: Homo sapiens; OVCAR-3, single dose 10 μM; read-out: percent cell growth promotion
[16] = test system: 786-0; assay type: cell-based; details: Homo sapiens; 786-0, single dose 10 μM; read-out: percent cell growth promotion
[17] = test system: RXF 393; assay type: cell-based; details: Homo sapiens; RXF 393, single dose 10 μM; read-out: percent cell growth promotion
[18] = test system: PC-3; assay type: cell-based; details: Homo sapiens; PC-3, single dose 10 μM; read-out: percent cell growth promotion
[19] = test system: MCF7; assay type: cell-based; details: Homo sapiens, MCF7, read-out: percent cell growth promotion

| Structure (SMILES) | activity at 10 µM [1] | activity at 10 µM [2] | activity at 10 µM [3] | activity at 10 µM [4] | activity at 10 µM [5] | activity at 10 µM [6] | activity at 10 µM [7] | activity at 10 µM [8] | activity at 10 µM [9] | activity at 10 µM [10] | activity at 10 µM [11] | activity at 10 µM [12] | activity at 10 µM [13] | activity at 10 µM [14] | activity at 10 µM [15] | activity at 10 µM [16] | activity at 10 µM [17] | activity at 10 µM [18] | activity at 10 µM [19] |
| --- | --- | --- | --- | --- | --- | --- | --- | --- | --- | --- | --- | --- | --- | --- | --- | --- | --- | --- | --- |
| c1ccc(N2CCN(c3nncc4ccccc34)CC2)nc1 [Compound 8d, 1–(4-(Pyridin-2-yl)piperazin-1-yl)phthalazine] | 102% | 96.6% | 107% | 103% | 98.1% | 105% | 117% | 103% | 108% | 104% | 107% | 113% | 109% | 99.6% | 99.9% | 104% | 108% | 101% | 105% |
| CCOC(=O)N1CCN(c2nnc(C)c3ccccc23)CC1 [Compound 8f, Ethyl 4–(4-methylphthalazin-1-yl)piperazine-1-carboxylate] | 103% | 114% | 96.9% | 101% | 103% | 104% | 99.8% | 103% | 98.6% | 107% | 94.2% | 107% | 102% | 109% | 112% | 93.3% | 108% | 101% | 92.1% |
| Cc1nnc(N2CCN(c3ccccc3)CC2)c2ccccc12 [Compound 8g, 1-Methyl-4–(4-phenylpiperazin-1-yl)phthalazine] | 103% | 103% | 104% | 107% | 95.2% | 103% | 109% | 113% | 98.5% | 109% | 96% | 105% | 114% | 110% | 108% | 100% | 105% | 99.4% | 96.7% |
